Test results published in US6946447B2, “MDM2-specific antisense oligonucleotides” (Hybridon, Inc., priority 1997, dated 2005).
Strand notation (5' to 3'): a small letter for the sugar, then the base; units joined by * are phosphorothioate-linked, units joined directly phosphodiester-linked; [ ] holds rarer units or linkages, { } end groups; capitals alone tell only the bases. d = 2'-deoxy (DNA)

What was measured:
[1] = tested on: DNA synthesis; assay: DNA synthesis by BrdU incorporation normalized to viable cells; assay type: cell-based; conditions: cell lines that do not undergo significant apoptosis, 100 nM, 20 hr (FIG. 15)
[2] = tested on: p53; assay: BP100-luciferase reporter in several representative cell lines; assay type: cell-based; conditions: stably transfected cell lines, 20 hr (FIG. 13)
Description: Cells stably transfected with the BP100-luciferase reporter were treated with antisense oligonucleotides at indicated concentrations for 20 hr. Luciferase activity/unit protein was determined and the magnitude of induction was shown compared to cells not treated with oligonucleotides. AS2M4: a 4 bp mismatch control of AS5-2. K: an unrelated oligonucleotide.
In order to determine whether the p53 protein that accumulates after inhibition of MDM2 is functionally active, a p53-responsive BP100-luciferase reporter plasmid was transfected into several representative cell lines. Stably transfected cells were then treated with AS5-2 or control oligonucleotides. […] The magnitude of p53 transcription activation is consistent with the fact that most of the p53 accumulation occurs in the nucleus, which has a low basal level of p53.

[3] = tested on: JAR cells; assay: Induction of apoptosis / cell death in JAR cells; assay type: cell-based, human; conditions: 400 nM, 30 h, Lipofectin
Description: JAR cells (ATCC) were grown in DMEM medium supplemented with 1% FBS according to standard cell culture techniques. Cells were then treated for 30 hours with growth medium containing 400 nM of either antisense oligonucleotide AS5 (SEQ ID NO:28) complementary to a portion of MDM2-encoding RNA or control oligonucleotide M4 (SEQ ID NO:5), and 7 μg/ml lipofectin (Gibco BRL Paisley, UK). Treated cells were then photographed using a phase contrast microscope.
JAR cells were treated for 24 hours as described in Example 6. Floating cells were harvested and chromosomal DNA was extracted according to standard techniques (Liu et al., Cell 86:147-157 (1996)). Purified DNA was then analyzed by agarose gel electrophoresis on a 2% agarose gel. Following electrophoresis the gel was stained with 0.5 μg/ml ethidium bromide.

[4] = tested on: MDM2; assay: MDM2 protein level by immunoprecipitation/Western blot in oligonucleotide-treated cells; assay type: cell-based, human; conditions: JAR cells, 18 h, Lipofectin 7 μg/ml, Western blot (FIG. 2A)
[5] = tested on: MDM2; conditions: JAR and SJSA cells, 100-400 nM, Lipofectin; cited from earlier work

Substance	rate of DNA synthesis (BrdU incorporation) [1]	induction of p53 transcription function [2]	cell death / apoptosis morphology [3]	inhibition of MDM2 expression [4]	decrease of MDM2 protein levels [5]
AS2M4: 4 bp mismatch control of AS5-2, 5′-TGACTCTTGTCCTTACTCAC-3′; SEQ ID NO: 26 (DNA dT*dG*dA*dC*dT*dC*dT*dT*dG*dT*dC*dC*dT*dT*dA*dC*dT*dC*dA*dC)	weaker	significantly reduced efficiency			
M4: mismatch control oligonucleotide of AS5 with four mismatches, 5′-GATGACTCACACCATCATGG-3′; SEQ ID NO:5 (listed as DNA, chemistry not given here) [Oligo M4]			significantly less apoptosis	not observed	no effect
